From US4443436A, “C-20-Modified macrolide derivatives of the macrolide antibiotics tylosin, desmycosin, macrocin, and lactenocin” (Eli Lilly and Company, priority 1982, dated 1984)
Converted amounts (≈) assume the structure as drawn. Like-named read-outs stand apart in the source and are kept apart here.

How the values were obtained:
[1] = tested on: Staphylococcus aureus X1.1; experiment: MIC, standard agar-dilution assay, Staphylococcus aureus X1.1; assay type: cell-based
[2] = tested on: Staphylococcus aureus V41; experiment: MIC, standard agar-dilution assay, Staphylococcus aureus V41; assay type: cell-based
[3] = tested on: Staphylococcus aureus X400; experiment: MIC, standard agar-dilution assay, Staphylococcus aureus X400; assay type: cell-based
[4] = tested on: Staphylococcus aureus S13E; experiment: MIC, standard agar-dilution assay, Staphylococcus aureus S13E; assay type: cell-based
[5] = tested on: Staphylococcus epidermidis EPI1; experiment: MIC, standard agar-dilution assay, Staphylococcus epidermidis EPI1; assay type: cell-based
[6] = tested on: Staphylococcus epidermidis EPI2; experiment: MIC, standard agar-dilution assay, Staphylococcus epidermidis EPI2; assay type: cell-based; conditions: Staphylococcus epidermidis EPI2, agar dilution
[7] = tested on: Streptococcus pyogenes C203; experiment: MIC, standard agar-dilution assay, Streptococcus pyogenes C203; assay type: cell-based
[8] = tested on: Streptococcus pneumoniae Park I; experiment: microbe, parasite or virus in culture; assay type: cell-based; conditions: Streptococcus pneumoniae Park I, agar dilution
[9] = tested on: Streptococcus Group D X66; experiment: MIC, standard agar-dilution assay, Streptococcus Group D X66; assay type: cell-based
Streptococcus Group 9960 = experiment: MIC, standard agar-dilution assay, Streptococcus Group 9960; assay type: cell-based
Staphylococcus aureus = experiment: MIC, broth-dilution microtiter test, Staphylococcus aureus; assay type: cell-based; conditions: broth-dilution microtiter
Text: (§1) The MIC's in Table X were obtained using conventional broth-dilution microtiter tests.

Streptococcus bovis 80 = experiment: MIC, broth-dilution microtiter test, Streptococcus bovis 80; assay type: cell-based; conditions: Streptococcus bovis 80, broth-dilution microtiter
Text: as §1

[10] = tested on: Pasteurella multocida 17E; experiment: MIC, broth-dilution microtiter test, Pasteurella multocida 17E; assay type: cell-based
Text: as §1

[11] = tested on: Pasteurella multocida 60A; experiment: MIC, broth-dilution microtiter test, Pasteurella multocida 60A; assay type: cell-based
Text: as §1

[12] = tested on: Pasteurella hemolytica 22C; experiment: MIC, broth-dilution microtiter test, Pasteurella hemolytica 22C; assay type: cell-based
Text: as §1

Mycoplasma gallisepticum = experiment: MIC, broth-dilution microtiter test, Mycoplasma gallisepticum; assay type: cell-based; conditions: Mycoplasma gallisepticum, broth-dilution microtiter
Text: as §1

Mycoplasma synoviae = experiment: MIC, broth-dilution microtiter test, Mycoplasma synoviae; assay type: cell-based
Text: as §1

Mycoplasma hyorhinis = experiment: MIC, broth-dilution microtiter test, Mycoplasma hyorhinis; assay type: cell-based
Text: as §1

Mycoplasma hyopneumoniae = experiment: MIC, broth-dilution microtiter test, Mycoplasma hyopneumoniae; assay type: cell-based; conditions: Mycoplasma hyopneumoniae, broth-dilution microtiter
Text: as §1

[13] = tested on: Streptococcus pyogenes C203; experiment: In vivo protection of mice experimentally infected with S. pyogenes C203; conditions: mice, doses given 1 and 4 hours post-infection; for ED50: Streptococcus pyogenes
Experimental: The C-20 modified derivatives of this invention have shown in vivo antimicrobial activity against experimentally-induced infections in laboratory animals. When two doses of test compound were administered to mice experimentally infected with S. pyogenes C203, the activity observed was measured as an ED50 value [effective dose in mg/kg to protect 50% of the test animals: see Warren Wick, et al., J. Bacteriol. 81, 233-235 (1961)].

Pasteurella multocida = experiment: Oral (gavage) treatment of Pasteurella multocida-infected chicks; assay type: in vivo, one-day-old chicks
Experimental: Many of the C-20 modified derivatives of this invention have also shown in vivo antibacterial activity against infections induced by gram-negative bacteria. Tables XII and XIII summarize the results of tests in which illustrative compounds were evaluated against Pasteurella infection in one-day-old chicks. The compounds were administered parenterally or orally after challenge of the chicks with Pasteurella multocida (0.1 ml of a 10^-4 dilution of a twenty-hour tryptose broth culture of an avian P. multocida given subcutaneously). In these tests, unless indicated otherwise, all non-medicated infected chicks died within 24 hours of Pasteurella challenge. In the tests summarized in Table XII the compounds were administered by subcutaneous injection at a dosage of 30 mg/kg, 1 and 4 hours post-challenge of the chicks with P. multocida. In the test summarized in Table XIII the compounds were administered by gavage at 1 and 5 hours post-challenge of the chicks with P. multocida.

[14] = tested on: Haemophilus influenzae Holt; experiment: MIC, standard agar-dilution assay, Haemophilus influenzae Holt; assay type: cell-based
[15] = tested on: Haemophilus influenzae R252; experiment: MIC, standard agar-dilution assay, Haemophilus influenzae R252; assay type: cell-based
[16] = Staphylococcus epidermidis, EPI1
[17] = Streptococcus equinus, read-out: MIC
[18] = Mycoplasmoides gallisepticum, read-out: MIC
[19] = Mesomycoplasma hyopneumoniae, read-out: MIC
[20] = C203, sc, subcutaneous, read-out: ED50, Subcutaneous
[21] = C203, oral, read-out: ED50, Oral

**Q.** What does the source list for `CCC1OC(=O)CC(O)C(C)C(OC2OC(C)C(O)C(N(C)C)C2O)C(CCSc2ccccc2)CC(C)C(=O)C=CC(C)=CC1COC1OC(C)C(O)C(OC)C1OC` (stereo not drawn) [Compound 23, 20-DH-DO-20-(phenylthio)desmycosin]?
**A.** MIC ([1]; Staphylococcus aureus, X1.1): 0.25 µg/mL (≈ 0.289 µM); MIC ([2]; Staphylococcus aureus, V41): 0.25 µg/mL (≈ 0.289 µM); MIC ([3]; Staphylococcus aureus, X400): 0.25 µg/mL (≈ 0.289 µM); MIC ([4]; Staphylococcus aureus, S13E): 0.25 µg/mL (≈ 0.289 µM); MIC [5, 16]: 0.25 µg/mL (≈ 0.289 µM); MIC ([6]; read-out: MIC): 0.12 µg/mL (≈ 0.139 µM); MIC ([7]; Streptococcus pyogenes, C203): 0.25 µg/mL (≈ 0.289 µM); MIC ([8]; read-out: MIC): 2 µg/mL (≈ 2.31 µM); MIC ([9]; Streptococcus Group D X66, agar dilution, read-out: MIC): 8 µg/mL (≈ 9.24 µM); MIC (Streptococcus Group 9960; GROUP9960, Streptococcus Group 9960, agar dilution, read-out: MIC): 16 µg/mL (≈ 18.5 µM); MIC (Staphylococcus aureus; read-out: MIC): 0.19 µg/mL (≈ 0.219 µM); MIC (Streptococcus bovis 80; [17]): 6.25 µg/mL (≈ 7.22 µM); MIC ([10]; Pasteurella multocida, 17E): 12.5 µg/mL (≈ 14.4 µM); MIC ([11]; Pasteurella multocida, 60A): 12.5 µg/mL (≈ 14.4 µM); MIC ([12]; Pasteurella hemolytica 22C, broth-dilution microtiter, read-out: MIC): 25 µg/mL (≈ 28.9 µM); MIC (Mycoplasma gallisepticum; [18]): 0.09 µg/mL (≈ 0.104 µM); MIC (Mycoplasma synoviae; Mycoplasmopsis synoviae, Mycoplasma synoviae, broth-dilution microtiter, read-out: MIC): 6.25 µg/mL (≈ 7.22 µM); MIC (Mycoplasma hyorhinis; Mycoplasma hyorhinis, broth-dilution microtiter, read-out: MIC): > 50 µg/mL; MIC (Mycoplasma hyopneumoniae; [19]): > 25 µg/mL; ED50 [13, 20]: 10 mg/kg; ED50 [13, 21]: 17 mg/kg; Number of Deaths/Number tested (Pasteurella multocida; 0.5 g/gal equivalent): 8/10; Number of Deaths/Number tested (Pasteurella multocida; 1.0 g/gal equivalent): 10/10

**Q.** `CCC1OC(=O)CC(O)C(C)C(OC2OC(C)C(O)C(N(C)C)C2O)C(CCOc2ccc(C(=O)c3ccccc3)cc2)CC(C)C(=O)C=CC(C)=CC1COC1OC(C)C(O)C(OC)C1OC` (stereo not drawn) [Compound 37, 20-DH-20-O-(p-Benzoylphenyl)desmycosin] was tested. Which MIC ([1]; Staphylococcus aureus, X1.1) did it give?
**A.** 0.25 µg/mL (≈ 0.262 µM)

**Q.** And the MIC ([2]; Staphylococcus aureus, V41)?
**A.** 0.25 µg/mL (≈ 0.262 µM)

**Q.** What about the MIC ([3]; Staphylococcus aureus, X400) of the same compound?
**A.** 0.25 µg/mL (≈ 0.262 µM)

**Q.** And the MIC ([4]; Staphylococcus aureus, S13E)?
**A.** 0.25 µg/mL (≈ 0.262 µM)

**Q.** What about the MIC [5, 16] of the same compound?
**A.** 0.25 µg/mL (≈ 0.262 µM)

**Q.** What about the MIC ([6]; read-out: MIC) of the same compound?
**A.** 0.12 µg/mL (≈ 0.126 µM)

**Q.** And the MIC [9]?
**A.** 0.25 µg/mL (≈ 0.262 µM)

**Q.** And the MIC (Streptococcus Group 9960; GROUP9960)?
**A.** 0.5 µg/mL (≈ 0.524 µM)

**Q.** And the MIC ([14]; Haemophilus influenzae)?
**A.** 16 µg/mL (≈ 16.8 µM)

**Q.** What about the MIC ([15]; Haemophilus influenzae, R252) of the same compound?
**A.** 16 µg/mL (≈ 16.8 µM)

**Q.** And the MIC (Staphylococcus aureus; read-out: MIC)?
**A.** 0.19 µg/mL (≈ 0.199 µM)

**Q.** And the MIC (Streptococcus bovis 80; [17])?
**A.** 0.19 µg/mL (≈ 0.199 µM)

**Q.** And the MIC ([10]; Pasteurella multocida, 17E)?
**A.** 12.5 µg/mL (≈ 13.1 µM)

**Q.** And the MIC ([11]; Pasteurella multocida 60A, avian isolate, broth-dilution microtiter, read-out: MIC)?
**A.** 25 µg/mL (≈ 26.2 µM)

**Q.** And the MIC ([12]; Pasteurella, 22C)?
**A.** 12.5 µg/mL (≈ 13.1 µM)

**Q.** What about the MIC (Mycoplasma gallisepticum; [18]) of the same compound?
**A.** 0.19 µg/mL (≈ 0.199 µM)

**Q.** What about the MIC (Mycoplasma synoviae; Mycoplasmopsis synoviae) of the same compound?
**A.** 1.56 µg/mL (≈ 1.63 µM)

**Q.** And the MIC (Mycoplasma hyorhinis; Mycoplasma)?
**A.** 0.78 µg/mL (≈ 0.817 µM)

**Q.** And the MIC (Mycoplasma hyopneumoniae; [19])?
**A.** 0.19 µg/mL (≈ 0.199 µM)

**Q.** What about the ED50 [13, 20] of the same compound?
**A.** 7.2 mg/kg

**Q.** What about the ED50 [13, 21] of the same compound?
**A.** 18 mg/kg

**Q.** What about the “Number of Deaths/Number tested” value (Pasteurella multocida; 1.5 g/gal equivalent) of the same compound?
**A.** 10/10

**Q.** With `CCC1OC(=O)CC(O)C(C)C(OC2OC(C)C(O)C(N(C)C)C2O)C(CCOc2cc(Cl)cc(Cl)c2)CC(C)C(=O)C=CC(C)=CC1COC1OC(C)C(O)C(OC)C1OC` (stereo not drawn) [Compound 40, 20-DH-20-O-(3,5-Dichlorophenyl)desmycosin] as the compound, how does the MIC ([1]; Staphylococcus aureus X1.1, agar dilution) read?
**A.** 0.25 µg/mL (≈ 0.272 µM)

**Q.** What about the MIC ([2]; Staphylococcus aureus V41, penicillin-resistant strain, agar dilution) of the same compound?
**A.** 0.25 µg/mL (≈ 0.272 µM)

**Q.** What about the MIC ([3]; Staphylococcus aureus X400, methicillin-resistant strain, agar dilution) of the same compound?
**A.** 0.25 µg/mL (≈ 0.272 µM)

**Q.** And the MIC ([4]; Staphylococcus aureus S13E, agar dilution)?
**A.** 0.25 µg/mL (≈ 0.272 µM)

**Q.** And the MIC ([5]; Staphylococcus epidermidis EPI1, agar dilution)?
**A.** 0.25 µg/mL (≈ 0.272 µM)

**Q.** What about the MIC [6] of the same compound?
**A.** 0.12 µg/mL (≈ 0.131 µM)

**Q.** What about the MIC ([7]; Streptococcus pyogenes C203, agar dilution) of the same compound?
**A.** 0.12 µg/mL (≈ 0.131 µM)

**Q.** What about the MIC [8] of the same compound?
**A.** 1 µg/mL (≈ 1.09 µM)

**Q.** What about the MIC ([9]; Streptococcus Group D X66, agar dilution) of the same compound?
**A.** 4 µg/mL (≈ 4.35 µM)

**Q.** What about the MIC (Streptococcus Group 9960; Streptococcus Group 9960, agar dilution) of the same compound?
**A.** 8 µg/mL (≈ 8.71 µM)

**Q.** What about the MIC ([14]; Haemophilus influenzae Holt, ampicillin-sensitive strain, agar dilution) of the same compound?
**A.** 32 µg/mL (≈ 34.8 µM)

**Q.** What about the MIC ([15]; Haemophilus influenzae R252, ampicillin-resistant strain, agar dilution) of the same compound?
**A.** 16 µg/mL (≈ 17.4 µM)

**Q.** And the MIC (Staphylococcus aureus)?
**A.** 0.39 µg/mL (≈ 0.424 µM)

**Q.** And the MIC (Streptococcus bovis 80)?
**A.** 3.12 µg/mL (≈ 3.4 µM)

**Q.** What about the MIC ([10]; Pasteurella multocida 17E, bovine isolate, broth-dilution microtiter) of the same compound?
**A.** 12.5 µg/mL (≈ 13.6 µM)

**Q.** And the MIC ([11]; Pasteurella multocida 60A, avian isolate, broth-dilution microtiter)?
**A.** 12.5 µg/mL (≈ 13.6 µM)

**Q.** What about the MIC ([12]; Pasteurella hemolytica 22C, broth-dilution microtiter) of the same compound?
**A.** 12.5 µg/mL (≈ 13.6 µM)

**Q.** And the MIC (Mycoplasma gallisepticum)?
**A.** < 0.05 µg/mL

**Q.** And the MIC (Mycoplasma synoviae; Mycoplasma synoviae, broth-dilution microtiter)?
**A.** 0.19 µg/mL (≈ 0.207 µM)

**Q.** What about the MIC (Mycoplasma hyorhinis; Mycoplasma hyorhinis, broth-dilution microtiter) of the same compound?
**A.** 12.5 µg/mL (≈ 13.6 µM)

**Q.** And the MIC (Mycoplasma hyopneumoniae)?
**A.** 12.5 µg/mL (≈ 13.6 µM)

**Q.** And the “ED50, Oral” value ([13]; oral)?
**A.** 31 mg/kg × 2

**Q.** And the “ED50, Subcutaneous” value ([13]; subcutaneous)?
**A.** > 10 mg/kg × 2

**Q.** What about the “Number of Deaths/Number tested” value (Pasteurella multocida; 1.5 g/gal equivalent) of the same compound?
**A.** 10/10
